Measured values reported in patent US12655125B2 (SIRONAX LTD., priority 2020, dated 2026).
pEC50: −log10 of the molar value.

What follows are compounds tested on HT-29 cells (assay: HT29 Cells 0FBS Assay In Vitro (TNF-α/SMAC mimetic/zVAD-FMK induced necroptosis, CellTiter-Glo cell viability)). Settings: Homo sapiens; HT-29 cells, FBS free medium, TNF-α (10 ng/ml), SMAC mimetic (6 uM), zVAD-FMK (10 μM), 20 hours; geometric mean EC50; read-out: Cell activity (EC50) of Compounds 117-281.
Type: cell-based
Procedure, shortened: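 Viability was measured by ATP luminescence (CellTiter-Glo) after 20 h at 37° C of compound exposure in 10-point, 1:3 dilutions. Necroptosis in FBS-free HT-29 cultures was driven by a TNF-α (10 ng/ml), SMAC mimetic (6 μM) and zVAD-FMK (10 μM) cocktail. EC50 values are geometric means from duplicate curves.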

`CCOC(=O)c1[nH]c(C)c(-c2cc(OC3CN(C(=O)N4N=CC[C@H]4c4cc(F)cc(F)c4)C3)c(F)cn2)c1C` [compound 153, Ethyl (S)-4-(4-((1-(5-(3,5-difluorophenyl)-4,5-dihydro-1H-pyrazole-1-carbonyl)azetidin-3-yl)oxy)-5-fluoropyridin-2-yl)-3,5-dimethyl-1H-pyrrole-2-carboxylate] and `Cc1nn(C)c(C)c1-c1cc(OC2CN(C(=O)N3N=CC[C@H]3c3cc(F)cc(F)c3)C2)c(F)cn1` [compound 159, (S)-(5-(3,5-difluorophenyl)-4,5-dihydro-1H-pyrazol-1-yl)(3-((5-fluoro-2-(1,3,5-trimethyl-1H-pyrazol-4-yl)pyridin-4-yl)oxy)azetidin-1-yl)methanone] fall in the same range of pEC50: 7.00 to 10.00 for the first, 7.00 to 10.00 for the second.

`CNc1cc(-c2cc(OC3CN(C(=O)N4N=CC[C@H]4c4cc(F)cc(F)c4)C3)c(F)cn2)n(C)n1` [compound 154] and `CN(C)c1cc(-c2cc(OC3CN(C(=O)N4N=CC[C@H]4c4cc(F)cc(F)c4)C3)c(F)cn2)n(C)n1` [compound 166, (S)-(5-(3,5-difluorophenyl)-4,5-dihydro-1H-pyrazol-1-yl)(3-((2-(3-(dimethylamino)-1-methyl-1H-pyrazol-5-yl)-5-fluoropyridin-4-yl)oxy)azetidin-1-yl)methanone] fall in the same range of pEC50: 7.00 to 10.00 for the first, 7.00 to 10.00 for the second.

`COCc1c(C)nn(-c2cc(OC3CN(C(=O)N4N=CC[C@H]4c4cc(F)cc(F)c4)C3)c(F)cn2)c1C` [compound 155, (S)-(5-(3,5-difluorophenyl)-4,5-dihydro-1H-pyrazol-1-yl)(3-((5-fluoro-2-(4-(methoxymethyl)-3,5-dimethyl-1H-pyrazol-1-yl)pyridin-4-yl)oxy)azetidin-1-yl)methanone] and `CCS(=O)(=O)c1c(C)nn(-c2cc(OC3CN(C(=O)N4N=CC[C@H]4c4cc(F)cc(F)c4)C3)c(F)cn2)c1C` [compound 167, (S)-(5-(3,5-difluorophenyl)-4,5-dihydro-1H-pyrazol-1-yl)(3-((2-(4-(ethylsulfonyl)-3,5-dimethyl-1H-pyrazol-1-yl)-5-fluoropyridin-4-yl)oxy)azetidin-1-yl)methanone] fall in the same range of pEC50: 7.00 to 10.00 for the first, 7.00 to 10.00 for the second.

`Cc1nn(CCO)c(C)c1-c1ncc(F)c(OC2CN(C(=O)N3N=CC[C@H]3c3cc(F)cc(F)c3)C2)n1` [compound 156, (S)-(5-(3,5-difluorophenyl)-4,5-dihydro-1H-pyrazol-1-yl)(3-((5-fluoro-2-(1-(2-hydroxyethyl)-3,5-dimethyl-1H-pyrazol-4-yl)pyrimidin-4-yl)oxy)azetidin-1-yl)methanone] and `Cc1nn(CC2CC2)c(C)c1-c1ncc(F)c(OC2CN(C(=O)N3N=CC[C@H]3c3cc(F)cc(F)c3)C2)n1` [compound 158, (S)-(3-((2-(1-(cyclopropylmethyl)-3,5-dimethyl-1H-pyrazol-4-yl)-5-fluoropyrimidin-4-yl)oxy)azetidin-1-yl)(5-(3,5-difluorophenyl)-4,5-dihydro-1H-pyrazol-1-yl)methanone] fall in the same range of pEC50: 7.00 to 10.00 for the first, 7.00 to 10.00 for the second.

`Cc1nn(C2CCOCC2)c(C)c1-c1cc(OC2CN(C(=O)N3N=CC[C@H]3c3cc(F)cc(F)c3)C2)c(F)cn1` [compound 157, (S)-(5-(3,5-difluorophenyl)-4,5-dihydro-1H-pyrazol-1-yl)(3-((2-(3,5-dimethyl-1-(tetrahydro-2H-pyran-4-yl)-1H-pyrazol-4-yl)-5-fluoropyridin-4-yl)oxy)azetidin-1-yl)methanone] and `Cc1c(-c2cc(OC3CN(C(=O)N4N=CC[C@H]4c4cc(F)cc(F)c4)C3)c(F)cn2)c(CO)nn1CC1CC1` [compound 168, (S)-(3-((2-(1-(cyclopropylmethyl)-3-(hydroxymethyl)-5-methyl-1H-pyrazol-4-yl)-5-fluoropyridin-4-yl)oxy)azetidin-1-yl)(5-(3,5-difluorophenyl)-4,5-dihydro-1H-pyrazol-1-yl)methanone] fall in the same range of pEC50: 7.00 to 10.00 for the first, 7.00 to 10.00 for the second.

`COCCNc1nn(C)c(-c2cc(OC3CN(C(=O)N4N=CC[C@H]4c4cc(F)cc(F)c4)C3)c(F)cn2)c1C` [compound 160, (S)-(5-(3,5-difluorophenyl)-4,5-dihydro-1H-pyrazol-1-yl)(3-((5-fluoro-2-(3-((2-methoxyethyl)amino)-1,4-dimethyl-1H-pyrazol-5-yl)pyridin-4-yl)oxy)azetidin-1-yl)methanone] and `Cc1c(NCC2CC2)nn(C)c1-c1cc(OC2CN(C(=O)N3N=CC[C@H]3c3cc(F)cc(F)c3)C2)c(F)cn1` [compound 163, (S)-(3-((2-(3-((cyclopropylmethyl)amino)-1,4-dimethyl-1H-pyrazol-5-yl)-5-fluoropyridin-4-yl)oxy)azetidin-1-yl)(5-(3,5-difluorophenyl)-4,5-dihydro-1H-pyrazol-1-yl)methanone] fall in the same range of pEC50: 7.00 to 10.00 for the first, 7.00 to 10.00 for the second.

`Cc1ccc(C(N)=O)n1-c1cc(OC2CN(C(=O)N3N=CC[C@H]3c3cc(F)cc(F)c3)C2)c(F)cn1` [compound 161, (S)-1-(4-((1-(5-(3,5-difluorophenyl)-4,5-dihydro-1H-pyrazole-1-carbonyl)azetidin-3-yl)oxy)-5-fluoropyridin-2-yl)-5-methyl-1H-pyrrole-2-carboxamide] and `Cn1nc(C(N)=O)cc1-c1cc(OC2CN(C(=O)N3N=CC[C@H]3c3cc(F)cc(F)c3)C2)c(F)cn1` [compound 172, (S)-5-(4-((1-(5-(3,5-difluorophenyl)-4,5-dihydro-1H-pyrazole-1-carbonyl)azetidin-3-yl)oxy)-5-fluoropyridin-2-yl)-1-methyl-1H-pyrazole-3-carboxamide] fall in the same range of pEC50: 7.00 to 10.00 for the first, 7.00 to 10.00 for the second.

`Cc1c(NC(C)C)nn(C)c1-c1cc(OC2CN(C(=O)N3N=CC[C@H]3c3cc(F)cc(F)c3)C2)c(F)cn1` [compound 162, (S)-(5-(3,5-difluorophenyl)-4,5-dihydro-1H-pyrazol-1-yl)(3-((5-fluoro-2-(3-(isopropylamino)-1,4-dimethyl-1H-pyrazol-5-yl)pyridin-4-yl)oxy)azetidin-1-yl)methanone] and `Cc1c(Cl)nn(C)c1-c1cc(OC2CN(C(=O)N3N=CC[C@H]3c3cc(F)cc(F)c3)C2)c(F)cn1` [compound 175, (S)-(3-((2-(3-chloro-1,4-dimethyl-1H-pyrazol-5-yl)-5-fluoropyridin-4-yl)oxy)azetidin-1-yl)(5-(3,5-difluorophenyl)-4,5-dihydro-1H-pyrazol-1-yl)methanone] fall in the same range of pEC50: 7.00 to 10.00 for the first, 7.00 to 10.00 for the second.

`Cc1c(N(C)CC2CC2)nn(C)c1-c1cc(OC2CN(C(=O)N3N=CC[C@H]3c3cc(F)cc(F)c3)C2)c(F)cn1` [compound 164, (S)-(3-((2-(3-((cyclopropylmethyl)(methyl)amino)-1,4-dimethyl-1H-pyrazol-5-yl)-5-fluoropyridin-4-yl)oxy)azetidin-1-yl)(5-(3,5-difluorophenyl)-4,5-dihydro-1H-pyrazol-1-yl)methanone] and `CSc1nn(C)c(-c2cc(OC3CN(C(=O)N4N=CC[C@H]4c4cc(F)cc(F)c4)C3)c(F)cn2)c1C` [compound 176, (S)-(5-(3,5-difluorophenyl)-4,5-dihydro-1H-pyrazol-1-yl)(3-((2-(1,4-dimethyl-3-(methylthio)-1H-pyrazol-5-yl)-5-fluoropyridin-4-yl)oxy)azetidin-1-yl)methanone] fall in the same range of pEC50: 7.00 to 10.00 for the first, 7.00 to 10.00 for the second.

`Cc1c(C(N)=O)nn(C)c1-c1cc(OC2CN(C(=O)N3N=CC[C@H]3c3cc(F)cc(F)c3)C2)c(F)cn1` [compound 165, (S)-5-(4-((1-(5-(3,5-difluorophenyl)-4,5-dihydro-1H-pyrazole-1-carbonyl)azetidin-3-yl)oxy)-5-fluoropyridin-2-yl)-1,4-dimethyl-1H-pyrazole-3-carboxamide] and `Cc1c(S(C)(=O)=O)nn(C)c1-c1cc(OC2CN(C(=O)N3N=CC[C@H]3c3cc(F)cc(F)c3)C2)c(F)cn1` [compound 177, (5-(3,5-difluorophenyl)-4,5-dihydro-1H-pyrazol-1-yl)(3-((2-(1,4-dimethyl-3-(methylsulfonyl)-1H-pyrazol-5-yl)-5-fluoropyridin-4-yl)oxy)azetidin-1-yl)methanone] fall in the same range of pEC50: 7.00 to 10.00 for the first, 7.00 to 10.00 for the second.

First: Cc1c(-c2cc(OC3CN(C(=O)N4N=CC[C@H]4c4cc(F)cc(F)c4)C3)c(F)cn2)c(CO)nn1CC1COC1 [compound 169, (S)-(5-(3,5-difluorophenyl)-4,5-dihydro-1H-pyrazol-1-yl)(3-((5-fluoro-2-(3-(hydroxymethyl)-5-methyl-1-(oxetan-3-ylmethyl)-1H-pyrazol-4-yl)pyridin-4-yl)oxy)azetidin-1-yl)methanone]
Second: Cn1nc(CO)cc1-c1cc(OC2CN(C(=O)N3N=CC[C@H]3c3cc(F)cc(F)c3)C2)c(F)cn1 [compound 174, (S)-(5-(3,5-difluorophenyl)-4,5-dihydro-1H-pyrazol-1-yl)(3-((5-fluoro-2-(3-(hydroxymethyl)-1-methyl-1H-pyrazol-5-yl)pyridin-4-yl)oxy)azetidin-1-yl)methanone]
The pEC50 of the first is lower: 5.00 to 6.00 for the first, 7.00 to 10.00 for the second.

`Cc1cc(C(F)(F)F)nn1-c1cc(OC2CN(C(=O)N3N=CC[C@H]3c3cc(F)cc(F)c3)C2)c(F)cn1` [compound 170, (S)-(5-(3,5-difluorophenyl)-4,5-dihydro-1H-pyrazol-1-yl)(3-((5-fluoro-2-(5-methyl-3-(trifluoromethyl)-1H-pyrazol-1-yl)pyridin-4-yl)oxy)azetidin-1-yl)methanone] and `Cn1nc(C#N)cc1-c1cc(OC2CN(C(=O)N3N=CC[C@H]3c3cc(F)cc(F)c3)C2)c(F)cn1` [compound 173, (S)-5-(4-((1-(5-(3,5-difluorophenyl)-4,5-dihydro-1H-pyrazole-1-carbonyl)azetidin-3-yl)oxy)-5-fluoropyridin-2-yl)-1-methyl-11H-pyrazole-3-carbonitrile] fall in the same range of pEC50: 7.00 to 10.00 for the first, 7.00 to 10.00 for the second.

In the case of `CN(C)C(=O)c1cc(-c2cc(OC3CN(C(=O)N4N=CC[C@H]4c4cc(F)cc(F)c4)C3)c(F)cn2)n(C)n1` [compound 171, (S)-5-(4-((1-(5-(3,5-difluorophenyl)-4,5-dihydro-1H-pyrazole-1-carbonyl)azetidin-3-yl)oxy)-5-fluoropyridin-2-yl)-N,N,1-trimethyl-11H-pyrazole-3-carboxamide], the pEC50 was 7.00 to 10.00.
